Patent US11401277B2, “Anti-bacterial heterocyclic compounds and their synthesis” (Bugworks Research, Inc., priority 2017, dated 2022)
In brackets after ≈: the same amount, converted by molar mass. Read-outs that look alike come from different tables or passages of the source.

Experiments:
E. coli topoisomerase IV = E. coli topoisomerase IV (Escherichia coli, UniProt P0AFI2+P20083); test: biochemical
[1] = Stability of IV formulation at room temperature; format: physicochemical; details: 10% L-ascorbic acid formulation
[2] = tested on: P. aurigenosa clinical strains; test: Susceptibility (MIC50 and MIC90 determination) studies, clinical strains; format: cell-based; details: CLSI
E. coli clinical strains = test: as above; format: cell-based; details: CLSI
[3] = In vivo pharmacokinetic (PK) studies in rats; set-up: species or system Sprague-Dawley (SD) rats; details: for Cmax / Vd / bioavailability / AUC(0-inf) / AUC(0-t) / Tmax / half-life / clearance: Sprague-Dawley, rat, plasma; for Vd: iv; for bioavailability: po, read-out: Bioavailability* (F, %); for clearance: read-out: CLp (converted)
[4] = Escherichia coli, E. coli clinical strains

Sequence of E. coli topoisomerase IV (P20083 whole entry): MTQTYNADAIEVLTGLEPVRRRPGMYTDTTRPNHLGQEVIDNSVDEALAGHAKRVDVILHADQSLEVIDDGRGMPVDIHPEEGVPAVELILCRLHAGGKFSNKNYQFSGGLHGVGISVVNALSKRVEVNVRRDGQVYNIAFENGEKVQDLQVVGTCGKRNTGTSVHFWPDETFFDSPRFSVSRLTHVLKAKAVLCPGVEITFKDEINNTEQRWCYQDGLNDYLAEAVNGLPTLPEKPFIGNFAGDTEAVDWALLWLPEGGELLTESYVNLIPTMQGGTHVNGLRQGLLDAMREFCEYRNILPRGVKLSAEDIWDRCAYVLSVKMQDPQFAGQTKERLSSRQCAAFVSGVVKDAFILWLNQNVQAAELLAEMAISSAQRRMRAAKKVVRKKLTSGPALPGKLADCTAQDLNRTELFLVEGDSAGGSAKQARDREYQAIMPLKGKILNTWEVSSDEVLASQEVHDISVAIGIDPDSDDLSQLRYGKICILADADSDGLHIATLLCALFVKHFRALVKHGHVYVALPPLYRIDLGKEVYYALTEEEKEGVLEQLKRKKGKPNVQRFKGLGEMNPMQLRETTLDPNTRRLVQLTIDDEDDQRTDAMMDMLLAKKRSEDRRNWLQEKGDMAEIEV
Sequence of E. coli topoisomerase IV (P0AFI2 whole entry): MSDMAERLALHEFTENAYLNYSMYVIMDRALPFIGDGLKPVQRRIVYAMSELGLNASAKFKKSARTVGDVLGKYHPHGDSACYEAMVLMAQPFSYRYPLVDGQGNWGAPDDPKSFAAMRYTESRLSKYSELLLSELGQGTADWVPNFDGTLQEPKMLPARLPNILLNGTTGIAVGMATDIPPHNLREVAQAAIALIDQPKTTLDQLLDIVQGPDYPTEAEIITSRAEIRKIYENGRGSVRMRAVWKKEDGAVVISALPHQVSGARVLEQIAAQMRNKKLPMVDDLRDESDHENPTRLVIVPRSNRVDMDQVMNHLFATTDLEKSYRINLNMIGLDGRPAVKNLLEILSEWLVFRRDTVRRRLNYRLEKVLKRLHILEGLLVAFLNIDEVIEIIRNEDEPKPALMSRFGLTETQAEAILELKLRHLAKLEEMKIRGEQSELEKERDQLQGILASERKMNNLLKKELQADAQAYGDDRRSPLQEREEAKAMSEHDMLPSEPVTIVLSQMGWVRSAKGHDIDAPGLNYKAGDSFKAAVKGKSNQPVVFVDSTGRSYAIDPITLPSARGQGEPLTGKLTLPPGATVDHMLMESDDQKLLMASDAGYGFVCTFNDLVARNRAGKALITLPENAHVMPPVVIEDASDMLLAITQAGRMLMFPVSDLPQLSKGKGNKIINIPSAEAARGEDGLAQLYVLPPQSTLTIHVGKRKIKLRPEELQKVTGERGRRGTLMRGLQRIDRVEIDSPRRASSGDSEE

In the case of Cn1c(=O)ccc2ccc(F)c(OCCNC[C@H]3CN(c4cnc5c(n4)NC(=O)CO5)C(=O)O3)c21 [Compound 2, (S)-6-(5-(((2-((7-fluoro-1-methyl-2-oxo-1,2-dihydroquinolin-8-yl)oxy)ethyl)amino)methyl)-2-oxooxazolidin-3-yl)-2H-pyrazino[2,3-b][1,4]oxazin-3(4H)-one], the IC50 (E. coli topoisomerase IV; gel based decatenation assay, read-out: E. coli Topo IV IC50) is reported as 45 nM, the IC50 (E. coli topoisomerase IV; unit inferred, read-out: IC50 E. coli Topo IV) is reported as at most 50 nM and the “IV formulation stable at room temperature” value [1] is reported as “more than 24 hours”. The MIC50 ([2]; Pae clinical strains) was 1 µg/mL (≈ 2.06 µM), the MIC90 ([2]; Pae clinical strains) was 1 µg/mL (≈ 2.06 µM) and the Minimum (MIC) ([2]; Pae clinical strains, MIC50/MIC90 in μg/ml) was 0.031 µg/mL. For the same compound, the MIC ATCC27853 ([2]; Pae reference strain ATCC27853, MIC50/MIC90 in μg/ml) was 0.5 µg/mL (≈ 1.03 µM), the Minimum (MIC) (E. coli clinical strains; E. coli clinical strains, MIC50/MIC90 in μg/ml) was 0.03 µg/mL and the MIC ATCC25922 (E. coli clinical strains; E. coli reference strain ATCC25922, MIC50/MIC90 in μg/ml) was 0.03 µg/mL (≈ 0.0619 µM). The MIC50 (E. coli clinical strains; [4]) was 0.25 µg/mL (≈ 0.516 µM), the MIC90 (E. coli clinical strains; [4]) was 0.25 µg/mL (≈ 0.516 µM) and the “AUC and Cmax versus dose (in words)” value ([3]; IV infusion and Oral dosing at 5, 10, 30 & 100 mg/kg doses in SD rats) was “Dose proportional increase”. For the same compound, the “clearance (in words)” value ([3]; SD rats) was “moderate”, the “half life (in words)” value ([3]; SD rats) was “moderate” and the “oral bioavailability (in words)” value ([3]; SD rats) was “good”. The “volume of distribution (in words)” value ([3]; SD rats) was “low”, the Cmax ([3]; 5 mg/kg, IV (1 h infusion), male SD rats) was 2800 ± 970 ng/mL and the Cmax ([3]; 10 mg/kg PO, male SD rats) was 2580 ± 75 ng/mL. The Cmax ([3]; 30 mg/kg, IV (1 h infusion), male SD rats) was 25200 ± 610 ng/mL, the Cmax ([3]; 100 mg/kg, IV (1 h infusion), male SD rats) was 93400 ± 4400 ng/mL and the Cmax ([3]; 150 mg/kg, IV (1 h infusion), male SD rats) was 112000 ± 7580 ng/mL. The Vd ([3]; male, 5 mg/kg, IV, read-out: Vd) was 6.4 ± 1.07 L/kg, the Vd ([3]; male, 5 mg/kg, IV, read-out: Vss) was 1.09 ± 0.13 L/kg and the Vd ([3]; male, 30 mg/kg, IV, read-out: Vd) was 4.94 ± 1.8 L/kg. For the same compound, the Vd ([3]; male, 30 mg/kg, IV, read-out: Vss) was 0.62 ± 0.05 L/kg, the Vd ([3]; male, 100 mg/kg, IV, read-out: Vd) was 5.57 ± 0.56 L/kg and the Vd ([3]; male, 100 mg/kg, IV, read-out: Vss) was 0.69 ± 0.02 L/kg. For the same compound, the Vd ([3]; male, 150 mg/kg, IV, read-out: Vd) was 5.38 ± 1.1 L/kg, the Vd ([3]; male, 150 mg/kg, IV, read-out: Vss) was 0.73 ± 0.07 L/kg and the bioavailability ([3]; male, 10 mg/kg) was 33.3 ± 3.1%. It also gave a bioavailability ([3]; male, 30 mg/kg) of 66.8 ± 14.4%, a bioavailability ([3]; male, 100 mg/kg) of 38.4 ± 12.4% and a bioavailability ([3]; male, 300 mg/kg) of 24.2 ± 15.6%. The AUC(0-inf) ([3]; male, 5 mg/kg, IV) was 1870 ± 350 ng·h/mL, the AUC(0-t) ([3]; male, 5 mg/kg, IV) was 1870 ± 350 ng·h/mL and the Tmax ([3]; male, 5 mg/kg, IV) was 0.76 ± 0.02 h. The half-life ([3]; male, 5 mg/kg, IV) was 1.53 ± 0.07 h, the clearance ([3]; male, 5 mg/kg, IV) was 45.7 mL/min/kg and the AUC(0-inf) ([3]; male, 10 mg/kg PO) was 1240 ± 100 ng·h/mL. The Tmax ([3]; male, 10 mg/kg PO) was 0.25 h, the half-life ([3]; male, 10 mg/kg PO) was 1.84 ± 0.15 h and the AUC(0-inf) ([3]; male, 30 mg/kg, IV) was 21800 ± 150 ng·h/mL. The AUC(0-t) ([3]; male, 30 mg/kg, IV) was 21780 ± 150 ng·h/mL, the Tmax ([3]; male, 30 mg/kg, IV) was 1 h and the half-life ([3]; male, 30 mg/kg, IV) was 2.45 ± 0.78 h. The clearance ([3]; male, 30 mg/kg, IV) was 23 mL/min/kg, the AUC(0-inf) ([3]; male, 30 mg/kg, PO) was 7540 ± 1620 ng·h/mL and the Cmax ([3]; male, 30 mg/kg, PO) was 8500 ± 2400 ng/mL. It also gave a Tmax ([3]; male, 30 mg/kg, PO) of 0.5 h, a half-life ([3]; male, 30 mg/kg, PO) of 1.7 ± 0.5 h and an AUC(0-inf) ([3]; male, 100 mg/kg, IV) of 118000 ± 13600 ng·h/mL. It also gave an AUC(0-t) ([3]; male, 100 mg/kg, IV) of 118000 ± 13600 ng·h/mL, a Tmax ([3]; male, 100 mg/kg, IV) of 1 h and a half-life ([3]; male, 100 mg/kg, IV) of 4.53 ± 0.12 h. It also gave a clearance ([3]; male, 100 mg/kg, IV) of 14.2 mL/min/kg, an AUC(0-inf) ([3]; male, 100 mg/kg, PO) of 14400 ± 4600 ng·h/mL and a Cmax ([3]; male, 100 mg/kg, PO) of 9790 ± 1100 ng/mL. It also gave a Tmax ([3]; male, 100 mg/kg, PO) of 0.33 ± 0.14 h, a half-life ([3]; male, 100 mg/kg, PO) of 5.32 ± 2.1 h and an AUC(0-inf) ([3]; male, 150 mg/kg, IV) of 172000 ± 10700 ng·h/mL.
